Measured values reported in patent publication US20210077477A1, “MICROGLIA MODULATORS FOR USE IN TREATMENT OF DEPRESSION” (priority 2018, published 2021).
Entries after “also recorded” stand apart in the source; their conditions may differ.

Assays:
brain microglia [1] = conditions: given chronically (more than 2-3 weeks); Danger et al., 2015; cited from earlier work
CUS-exposed mice [2] = assay: Social exploration test in the CUS model; assay type: in vivo
Experimental: (§1) The CUS schedule comprised daily exposure to two stressors in a random order over a 5-week period. The list of CUS stressors included: cage shaking for 1 h with loud music and lights on, lights on during the entire night (12 h), lights-off for 3 h during the daylight phase, flashing (stroboscopic) light for 6 h, placement in 4° C. cold room for 1 h, mild restraint (in small ventilated cages) for 2 h, 45° cage tilt for 14 h, wet sawdust in the cage for 14 h, exposure to rat odor for 2 h, noise in the room for 3 h, and water deprivation for 12 h during the dark period.
Each subject was placed in an observation cage and allowed to habituate to the cage for 15 min, following which a male juvenile was placed in the cage. Social exploration, defined as the time of near contact between the nose of the subject and the juvenile conspecific, was then recorded for 2 min, using computerized in-house software.

CUS-exposed mice [3] = assay: Porsolt forced swim test in the CUS model; assay type: in vivo
Experimental: as §1
Mice were placed in a plastic cylinder (with a height of 30 cm and diameter of 20 cm), filled with 25° C. water. The time spent immobile, defined as the absence of all movement except for motions required to maintain head above water were recorded for 6 min, and automatically analyzed off-line using the EthoVision software (Noldus).

[4] = system: hippocampal gene transcripts; assay: RNA sequencing of hippocampal gene transcription; assay type: in vivo, mice; conditions: for Log 2 (fold change) Con-Stress-Sham vs. PLX-Stress-Sham: hippocampus
Excerpt: RNA Sequencing, PolyA based mRNA was selected using oligodT beads, followed by fragmentation, first strand and second strand synthesis reactions. Illumina libraries were constructed while performing the end repair, A base addition, adapter ligation and PCR amplification steps with SPRI beads cleanup in between steps. Indexed samples were pooled and sequenced in an Illumina HiSeq 2500 machine in a single read mode.
Bioinformatics analysis. Adapters were trimmed using the cutadapt tool. Following adapter removal, reads that were shorter than 40 nucleotides were discarded (cutadapt option −m 40). Reads that had either a percentage of Adenine bases above 50% or a percentage of Thymine bases above 50% were discarded using a custom script. TopHat (v2.0.10) was used to align the reads to the mouse genome (mm10). Counting reads on mm10 refseq genes (downloaded from igenomes) was done with HTSeq-count (version 0.6.1p1). Differential expression analysis was performed using DESeq2 (1.6.3). Raw p values were adjusted for multiple testing (q-value, false discovery rate).

CUS-exposed mice [5] = assay: Sucrose preference test (anhedonia) in the CUS model; assay type: in vivo
Experimental: as §1
Following baseline adaptation to sucrose for 3-4 days, mice were presented in the beginning of the dark circadian phase with two graduated drinking tubes, one containing tap water and the other 1% sucrose solution for 4 h. Sucrose preference was calculated as the percentage of sucrose consumption out of the total drinking volume.

[6] = system: hippocampal gene transcripts; assay: qPCR validation of hippocampal gene expression; assay type: in vivo; conditions: hippocampus, CUS-exposed mice
Experimental: Mice were sacrificed by decapitation. Each brain was quickly removed on an ice-cold glass plate, and the hippocampus was dissected out under a binocular. Tissues were weighed, flash frozen in liquid nitrogen, and stored in −80° C. until RNA extraction. RNA was extracted using PerfectPure RNA extraction kit (5 PRIME, Darmstadt, Germany). RNA samples (2 μg) were reverse transcribed using the QuantiTect Reverse Transcription Kit from Qiagen (Hilden, Germany), including DNase treatment of contaminating genomic DNA. Expression of mRNA was determined by qPCR, using glyceraldehyde-3-phosphate dehydrogenase (Gapdh) as a normalizing gene. The following list of gene transcripts was validated: Ionized calcium-binding adapter molecule 1 (Iba1), the Purinergic receptor P2yr12, Lymphocyte-activation gene 3 (Lag-3), Cd180, tryptophan 2,3-dioxygenase (Tdo2), Phospholipase A2 Group IVE (Plag24e) Sox11, and Dopamine Receptor D1 (Drd1). Primers were designed using PrimerQuest IDT (Integrated DNA Technologies, Inc, San Diego, Calif., USA). The following primers were used, Gapdh, Forward: TCTCCCTCACAATTTCC (SEQ ID NO: 1); Reverse: GGGTGCAGCGAACTTTA (SEQ ID NO: 2). Drd1, Forward: […] (SEQ ID NO: 3); Reverse: […] (SEQ ID NO: 4). Tdo2, Forward: […] (SEQ ID NO: 5); Reverse: […] (SEQ ID NO: 6). Iba1, Forward: […] (SEQ ID NO: 7); Reverse: […] (SEQ ID NO: 8). Lag-3, Forward: […] (SEQ ID NO: 9); Reverse: […] (SEQ ID NO: 10). Cd180, Forward: […] (SEQ ID NO: 11); Reverse: […] (SEQ ID NO: 12). Sox11, Forward: […] (SEQ ID NO: 13); Reverse: […] (SEQ ID NO: 14). Plag24e, Forward: […] (SEQ ID NO: 15); Reverse: […] (SEQ ID NO: 16), and P2yr12 Forward: […] (SEQ ID NO: 17); Reverse: […] (SEQ ID NO: 18). Normal and mock reversed transcribed samples (in the absence of reverse transcriptase), as well as no template controls (total mix without cDNA) were run for each of the examined mRNAs. qPCR reactions were subjected to an initial step of 15 min at 95° C. to activate the HotStar Taq DNA polymerase, followed by 40 cycles consisting of 15 s at 94° C., 30 s at 60° C. and 30 s at 72° C. Fluorescence was measured at the end of each elongation step. Data were collected and analyzed using the StepOnePlus instrument and software (Thermo Fischer Scientific), and a threshold cycle value Ct was calculated from the exponential phase of each PCR sample. Expression levels of mRNAs were calculated and expressed in relative units of SYBR Green fluorescence.

brain microglia [7] = assay: Microglia depletion by PLX5622 diet (IBA-1 staining); assay type: in vivo, mice; conditions: diet containing PLX5622 for weeks, incl. hippocampus
hippocampal neurogenesis = assay: Hippocampal neurogenesis (DCX-positive cells in the DG); assay type: in vivo, mice; conditions: CUS-exposed, PLX diet, DCX-stained cells in DG
Experimental: Microglia were visualized using a primary antibody to the microglial marker ionized calcium-binding adapter molecule-1 (Iba-1) (rabbit anti Iba-1 1:250, Wako, Japan), followed by a secondary antibody (goat anti rabbit, 1:200; Invitrogen, Carlsbad, Calif., USA). The rate of neurogenesis in the hippocampus was measured by staining for doublecortin (DCX), using guinea pig anti-DCX (1:1,000, Millipore, Chemicon, Tamecula, Calif., USA) as the primary antibody, and biotin-SP-conjugated donkey anti-Guinea pig (1:200; Jackson Laboratories, West grove, PA, USA) as the secondary antibody, with final visualization using a conjugated streptavidin Ab (Jackson Laboratories, West grove, PA, USA). […]
Images were captured using a Nikon Eclipse microscope and camera. Cells were manually counted using 10× magnification in a defined area exclusively containing the dentate gyrus (DG) or CA3 region of the dorsal hippocampus for each slide, using Nikon Imaging Elements Software (NIS-Elements). Four sections of each brain were counted. […] Microglia cell processes length was measured by capturing images at 40× magnification and by manual tracing of the processes of all Iba-1+ cells in these sections, using the Image)/FIJI software. […] Contacts were recorded if spatial overlap was observed on the body or on the dendrite branches of P2YR12-positive cells. […]

[8] = PLX5622 diet, non-stressed mice
[9] = CUS-exposed SHAM-treated mice, q<0.32, cutoff ±1.3-fold
[10] = CUS 5 weeks, antibody 100 μg i.p. every 4 days, 6 injections, Cipralex daily i.p., 3 weeks

## COc1ncc(F)cc1CNc1ccc(Cc2c[nH]c3ncc(C)cc23)c(F)n1 [PLX5622]
Brain microglia [1]
  microglial depletion: near-complete microglial depletion
CUS-exposed mice [2]; CUS-exposed, ECT 2.5 weeks
  difference between effects of ECT on social exploration in PLX vs CDiet mice: did not reach statistical significance
CUS-exposed mice [2]; [8]
  social exploration, effect of microglia depletion by itself: did not reduce
CUS-exposed mice [3]; CUS-exposed, ECT 2.5 weeks
  forced swim immobility of ECT-treated PLX mice vs CDiet mice: significantly greater forced swim immobility
CUS-exposed mice [3]; [8]
  immobility in forced swim, effect of microglia depletion by itself: did not reduce
[4]; [9]
  genes differentially regulated, PLX vs CDiet: 390 genes
  genes down-regulated, PLX vs CDiet: 338 genes
  genes up-regulated, PLX vs CDiet: 52 genes
[4]; CUS-exposed mice
  genes differentially regulated between SHAM vs ECT in PLX-treated groups: no genes were differentially regulated
[4]; Cd40 transcript
  Log 2 (fold change) Con-Stress-Sham vs. PLX-Stress-Sham: 0.159
[4]; Cd80 transcript
  Log 2 (fold change) Con-Stress-Sham vs. PLX-Stress-Sham: 0.371
[4]; Cd86 transcript
  Log 2 (fold change) Con-Stress-Sham vs. PLX-Stress-Sham: 2.092
[4]; Cd180 transcript
  Log 2 (fold change) Con-Stress-Sham vs. PLX-Stress-Sham: 1.892
[4]; Cd276 transcript
  Log 2 (fold change) Con-Stress-Sham vs. PLX-Stress-Sham: 0.019
[4]; Ctla4 transcript
  Log 2 (fold change) Con-Stress-Sham vs. PLX-Stress-Sham: 0.100
[4]; Havcr2 (TIM-3) transcript
  Log 2 (fold change) Con-Stress-Sham vs. PLX-Stress-Sham: 2.101
[4]; Lag-3 transcript
  Log 2 (fold change) Con-Stress-Sham vs. PLX-Stress-Sham: 1.968
[4]; Lgals3 transcript
  Log 2 (fold change) Con-Stress-Sham vs. PLX-Stress-Sham: 0.011
[4]; PD-L1 transcript
  Log 2 (fold change) Con-Stress-Sham vs. PLX-Stress-Sham: 0.164
[4]; Pdcd1lg2 transcript
  Log 2 (fold change) Con-Stress-Sham vs. PLX-Stress-Sham: −0.373
[4]; Pdcd1 transcript
  Log 2 (fold change) Con-Stress-Sham vs. PLX-Stress-Sham: −0.669
[4]; Tdo2 transcript
  Log 2 (fold change) Con-Stress-Sham vs. PLX-Stress-Sham: −0.248
[4]; Tigit transcript
  Log 2 (fold change) Con-Stress-Sham vs. PLX-Stress-Sham: −0.804
[4]; Vtcn1 transcript
  Log 2 (fold change) Con-Stress-Sham vs. PLX-Stress-Sham: −0.905
CUS-exposed mice [5]; CUS-exposed, PLX5622 diet, 2.5-week course of ECT
  anti-depressive effect of ECT under microglial depletion: markedly attenuated
CUS-exposed mice [5]; CUS-exposed, PLX diet, ECT 3 times/week for 2.5 weeks
  effect of ECT on sucrose preference in PLX diet mice: only a small increase
CUS-exposed mice [5]; PLX5622 diet, 5 weeks CUS, sucrose preference and social exploration
  development of CUS-induced depression: did not influence
CUS-exposed mice [5]; [8]
  sucrose preference, effect of microglia depletion by itself: did not reduce
[6]
  Cd180 gene expression in PLX-treated mice: lower expression levels
  Drd1 expression, effect of the microglia depletion procedure by itself: not affected
  Iba1 expression, effect of the PLX5622 procedure: significantly reduced
  Lag-3 transcription in PLX-treated mice: almost completely abolished
  P2ry12 expression, effect of the PLX5622 procedure: significantly reduced
  Sox11 expression, effect of the microglia depletion procedure by itself: not affected
  Tdo2 expression in PLX5622-treated mice: significantly increased
  pla2g4e expression in PLX5622-treated mice: significantly increased
Brain microglia [7]
  depletion of brain microglia: near-complete depletion
Hippocampal neurogenesis
  effect of ECT on hippocampal neurogenesis under microglia depletion: completely prevented
Hippocampal neurogenesis; listed as PLX
  effect of ECT on hippocampal neurogenesis under microglia depletion: significantly reduced

## CN(C)CCC[C@@]1(c2ccc(F)cc2)OCc2cc(C#N)ccc21 [escitalopram]
CUS-exposed mice [2]; [10]
  social exploration (SE) after vs before chronic treatment: significantly elevated; also recorded: significant increase
CUS-exposed mice [5]; [10]
  sucrose preference after vs before chronic treatment: had no such effect
